From paper PMC9879991, “Biomolecular condensates formed by designer minimalistic peptides” (Nature Communications, 2023)
No end group written: not given here.

Legend:
[1] = Phase diagram in tris buffer: pH at which turbidity (LLPS) appears vs peptide concentration; format: physicochemical; details: 0.2 M NaCl, room temperature; for pH at which turbidity (LLPS) appears: 20 mM tris, turbidity A500
Text: We sought to design a library of LLPS-promoting peptide building blocks which form synthetic biomolecular condensates with tunable chemical composition and physical properties. We hypothesized that minimalistic variants of protein low complexity domains (LCDs) will self-assemble into liquid droplets through LLPS. Specifically, we envisioned that in order to keep the sequence length relatively short, the peptide composition should include high content of aromatic and basic amino acids that can interact through π–π or cation–π interactions. To test this hypothesis, we designed a primary sequence that contains various LLPS-promoting motifs. Inspired by LCDs of ribonucleoproteins (RNPs) and IDPs that are rich in arginine-glycine (RG) dyad or RGG triad repeats, we incorporated three repeats of an RG dyad (Fig. 1a), where glycine (Gly) provides flexibility and arginine (Arg) promotes electrostatic interactions with the terminal carboxylic group, cation- π or π interactions with aromatic amino acids (Fig. 1a). While both lysine (Lys) and Arg have basic side chain groups, the guanidine group of Arg delocalizes the charge due to the π bonded system and thus can promote more versatile binding modes compared to Lys, through cation–π and π–π interactions. Thus, considering that the Arg side chain can interact with side chains of aromatic amino acids, we incorporated tryptophan (Trp) and tyrosine (Tyr) into the peptide sequence at a 1:1 stoichiometry with Arg, with aromatic amino acids positioned at both ends of the sequence to enhance π–π stacking interactions. Finally, we considered the elastin-like polypeptide (ELP) repeating motif VPGXG. This pentapeptide sequence is a common LLPS-promoting motif used in engineered ordered/disordered polypeptides, where X can be any amino acid except proline (Pro), and a hydrophobic amino acid at this position promotes coacervation[39],[40]. […] Building on these previous findings, we incorporated the sequence WPGVG, thus obtaining the 14-mer peptide WGRGRGRGWPGVGY termed WGR-1 (Figs. 1a, 2a). WGR-1 forms droplets by self-coacervation at neutral pH in the presence of 0.2 M NaCl, which reduces the electrostatic repulsion of the basic peptide (Fig. 1b). We created a phase diagram of WGR-1 as a function of pH and peptide concentration in tris buffer by gradually increasing the pH and monitoring LLPS, as indicated by appearance of sample turbidity (Fig. 2b), where all experiments performed at room temperature. As expected, increasing peptide concentration decreased the pH in which visible turbidity and droplets are observed, where the critical LLPS concentration is 8 mM. To confirm that the turbidity is a result of LLPS and droplet formation rather than aggregation, we used bright field laser scanning confocal microscopy (Fig. 2c).
Fig. 2 Peptide sequence controls LLPS propensity and droplet formation. a Table of the designed peptide sequences. b Phase diagram of the peptides as a function of peptide concentration and pH, in tris buffer with 0.2 M NaCl, at room temperature. […] Source data are provided as a Source Data file. c Confocal microscopy bright field images of peptide liquid droplets formed at a concentration of 20 mM in Tris buffer at pH 8 with 0.2 M NaCl. Scale bars = 20 μm. Inset: macroscopic images of the peptide solutions. ‘Source data are provided as a Source Data file. TEXT PRINTED IN THE PICTURE: (b) WGR-1: LLPS | (b) WGR-2: No LLPS | (b) WGR-3: LLPS | (b) WGR-4: LLPS | (b) WGR-5: LLPS | (b) WGK: No LLPS DOUBTS OF THE COPYIST ABOUT THIS PICTURE: Panel b: "LLPS" / "No LLPS" are class labels printed inside the phase diagrams, with no numbers. In the diagrams with a curve, "LLPS" marks a region of the plot. / Panel c: the handwritten labels on the vials in the insets cannot be read with certainty and were left out. […]

[2] = Turbidity assay of WGR-1 (10 mM) in citrate, Tris and ammonium bicarbonate buffer; format: physicochemical; details: 10 mM peptide, mean of n=3
Procedure: Supplementary Figure 2. Turbidity assay of WGR-1 (10 mM) in citrate buffer (pH 6-7), Tris buffer (pH 6-10) and ammonium bicarbonate buffer (ABC, pH 9-10). Turbidity was monitored at λ=500 nm.
Source data are provided as a Source Data file. […]
iii) Performed solution NMR analysis to determine the pKa of the terminal amine for each […]
The results of each analysis are detailed below: i) To analyze the effect of the ions in each of the buffers on peptide LLPS, we performed turbidity assay of 10 mM WGR-1 using citrate buffer at pH 6-7, tris buffer at pH 6-10 and ammonium carbonate buffer at pH 9-10, with 200 mM NaCl. For citrate buffer, we measured sample turbidity at pH 6, the optimal value for this buffer, and in addition at pH 7, to compare the effect of citrate and tris on LLPS. Similarly, we analyzed the turbidity in ammonium bicarbonate buffer at pH 9 in additional to pH 10, to compare the effect of tris and ammonium bicarbonate on LLPS.
Higher turbidity is observed at pH 7 with citrate compared to tris and with ammonium bicarbonate at pH 9-10 compared to tris. […]
bicarbonate facilitate LLPS, presumably by reducing the electrostatic repulsion between […]
citrate and -1/-2 for ammonium bicarbonate). […]
In light of these findings and the obvious ion effect, we decided to present the new phase diagrams in tris in main text Figure 2b and the phase diagrams with the different buffers in Supplementary Fig. 1. The text was revised accordingly (see revised manuscript, revised text is highlighted in red). In addition, the turbidity assay of the different buffers was added to […]
Supplementary Fig. 2. […]

[3] = Turbidity analysis of WGR-1 with and without 0.5% FITC-labeled peptide; format: physicochemical; details: Tris buffer pH 8, 0.2 M NaCl, mean of n=3

## WGRGRGRGWPGVGY [WGR-1]
[1]; 8 mM peptide, mean of n=3
  pH at which turbidity (LLPS) appears: 8.483
[1]; 8 mM peptide, replicate 1
  pH at which turbidity (LLPS) appears: 8.43
[1]; 8 mM peptide, replicate 2
  pH at which turbidity (LLPS) appears: 8.47
[1]; 8 mM peptide, replicate 3
  pH at which turbidity (LLPS) appears: 8.55
[1]; 10 mM peptide, mean of n=3
  pH at which turbidity (LLPS) appears: 7.88
[1]; 10 mM peptide, replicate 1
  pH at which turbidity (LLPS) appears: 7.84
[1]; 10 mM peptide, replicate 2
  pH at which turbidity (LLPS) appears: 7.86
[1]; 10 mM peptide, replicate 3
  pH at which turbidity (LLPS) appears: 7.94
[1]; 15 mM peptide, mean of n=3
  pH at which turbidity (LLPS) appears: 7.483
[1]; 15 mM peptide, replicate 1
  pH at which turbidity (LLPS) appears: 7.45
[1]; 15 mM peptide, replicate 2
  pH at which turbidity (LLPS) appears: 7.51
[1]; 15 mM peptide, replicate 3
  pH at which turbidity (LLPS) appears: 7.49
[1]; 20 mM peptide, mean of n=3
  pH at which turbidity (LLPS) appears: 7.12
[1]; 20 mM peptide, replicate 1
  pH at which turbidity (LLPS) appears: 7.13
[1]; 20 mM peptide, replicate 2
  pH at which turbidity (LLPS) appears: 7.08
[1]; 20 mM peptide, replicate 3
  pH at which turbidity (LLPS) appears: 7.15
[1]; 30 mM peptide, mean of n=3
  pH at which turbidity (LLPS) appears: 6.85
[1]; 30 mM peptide, replicate 1
  pH at which turbidity (LLPS) appears: 6.82
[1]; 30 mM peptide, replicate 3
  pH at which turbidity (LLPS) appears: 6.88
[1]; tris buffer, lowest of 5-30 mM at which turbidity/droplets form
  critical LLPS concentration: 8 mM
[2]; AC (ammonium bicarbonate) buffer, pH 9, 200 mM NaCl
  Turbidity as asorbance at 500 nm: 2.028
[2]; AC (ammonium bicarbonate) buffer, pH 10, 200 mM NaCl
  Turbidity as asorbance at 500 nm: 2.068
[2]; Tris buffer, pH 6, 200 mM NaCl
  Turbidity as asorbance at 500 nm: 0.007333
[2]; Tris buffer, pH 7, 200 mM NaCl
  Turbidity as asorbance at 500 nm: 0.01967
[2]; Tris buffer, pH 8, 200 mM NaCl
  Turbidity as asorbance at 500 nm: 0.2073
[2]; Tris buffer, pH 9, 200 mM NaCl
  Turbidity as asorbance at 500 nm: 1.416
[2]; Tris buffer, pH 10, 200 mM NaCl
  Turbidity as asorbance at 500 nm: 1.71
[2]; citrate buffer, pH 6, 200 mM NaCl
  Turbidity as asorbance at 500 nm: 0.02367
[2]; citrate buffer, pH 7, 200 mM NaCl
  Turbidity as asorbance at 500 nm: 0.974
[3]; peptide concentration 10 (mM)
  Turbidity as asorbance at 350 nm: 0.3393
[3]; peptide concentration 20 (mM)
  Turbidity as asorbance at 350 nm: 2.135
other
  differential NaCl-induced change, largest (residue P10): 5.5 Hz
